Measurements reported in the supplement of paper PMC8671470.

Key:
Conditions in all cases: 72 h
SHI-1 [1] = experiment: cell viability (% survival relative to DMSO control, bortezomib = 0%); higher = less cytotoxic
In short: (§1)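 Reported values are percent survival from duplicate wells, averaged. Fifteen myeloid leukaemia cell lines were treated in 384-well plates with compounds at 1, 10, 100, 1000 or 10000 nM for 72 h at 37 °C in 5% CO2. Signals from CellTiter-Glo luminescence were scaled with vehicle as 100% and a 10 µM positive control as 0%.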

HEL [2] = experiment: as above
In short: as §1

KU-812 [3] = experiment: as above
In short: as §1

KG-1 [4] = experiment: as above
In short: as §1

NOMO-1 [5] = experiment: as above
In short: as §1

KCL-22 [6] = experiment: as above
In short: as §1

LAMA-84 [7] = experiment: as above
In short: as §1

MV4-11 [8] = experiment: as above
In short: as §1

THP-1 [9] = experiment: as above
In short: as §1

BV-173 [10] = experiment: as above
In short: as §1

ML-2 [11] = experiment: as above
In short: as §1

Mono-Mac-6 [12] = experiment: as above
In short: as §1

MOLM-13 [13] = experiment: as above
In short: as §1

HL-60 [14] = experiment: as above
In short: as §1

SHI-1 [15] = test system: SHI-1
In short: (§2)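 Fifteen myeloid leukaemia lines in RPMI 1640 were treated for 72 h at 37 °C and 5% CO2 with five tenfold doses from 1 to 10,000 nM, in duplicate. ATP luminescence was normalised to vehicle and to a positive control at 10 µM, then fitted with a four-parameter log-logistic model. The IC50 came from these fits.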

HEL [16] = test system: HEL
In short: as §2

K-562 = test system: K-562
In short: as §2

KU-812 [17] = test system: KU-812
In short: as §2

KG-1 [18] = test system: KG-1
In short: as §2

NOMO-1 [19] = test system: NOMO-1
In short: as §2

KCL-22 [20] = test system: KCL-22
In short: as §2

LAMA-84 [21] = test system: LAMA-84
In short: as §2

MV4-11 [22] = test system: MV4-11
In short: as §2

THP-1 [23] = test system: THP-1
In short: as §2

BV-173 [24] = test system: BV-173
In short: as §2

ML-2 [25] = test system: ML-2
In short: as §2

Mono-Mac-6 [26] = test system: Mono-Mac-6
In short: as §2

MOLM-13 [27] = test system: MOLM-13
In short: as §2

HL-60 [28] = test system: HL-60
In short: as §2

HL-60 [29] = experiment: area under dose-response curve (viability, 1 nM-10 uM) (fraction (0-1)); higher = more sensitive
In short: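 For each screen, HL-60 cells in RPMI 1640 with 10% FBS carried either DMSO or 100 nM of one of three metabolic inhibitors while the full library was applied at five tenfold concentrations, 1–10,000 nM, in duplicate. Plates were 384-well and were kept 72 h at 37 °C, 5% CO2. Viability, measured by CellTiter-Glo, was normalised to wells with DMSO and with 10 μM proteasome inhibitor. Where area under the curve appears, it was fitted by four-parameter log-logistic models in drc and PharmacoGx.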

Cl.NC(CCC(=O)Nc1ccc([N+](=O)[O-])cc1)C(=O)O (stereo unspecified) [GPNA]
Conditions | area under dose-response curve, co-treatment: AZD3965 100 nM | area under dose-response curve, co-treatment: DMSO vehicle | area under dose-response curve, co-treatment: GSK2194069 100 nM | area under dose-response curve, co-treatment: pictilisib 100 nM | cell viability, 1 nM [%] | cell viability, 10 nM [%] | cell viability, 100 nM [%] | cell viability, 1000 nM [%] | cell viability, 10000 nM [%]
BV-173 [10] | – | – | – | – | 114 | 106 | 94.1 | 101 | 119
HEL [2] | – | – | – | – | 95.2 | 104 | 106 | 91.5 | 104
HL-60 [14] | – | – | – | – | 103 | 60.6 | 104 | 99.3 | 125
HL-60 [29] | < 0.0301 | < 0.0301 | < 0.0301 | < 0.0301 | – | – | – | – | –
KCL-22 [6] | – | – | – | – | 106 | 91 | 110 | 96.5 | 102
KG-1 [4] | – | – | – | – | 112 | 115 | 95.9 | 102 | 108
KU-812 [3] | – | – | – | – | 108 | 95.5 | 103 | 96.4 | 110
LAMA-84 [7] | – | – | – | – | 109 | 109 | 98 | 111 | 100
ML-2 [11] | – | – | – | – | 107 | 90.5 | 98.9 | 107 | 109
MOLM-13 [13] | – | – | – | – | 101 | 99.6 | 109 | 98.2 | 134
MV4-11 [8] | – | – | – | – | 117 | 93.5 | 100 | 99.5 | 124
Mono-Mac-6 [12] | – | – | – | – | 92.2 | 96.4 | 105 | 98.3 | 104
NOMO-1 [5] | – | – | – | – | 107 | 102 | 101 | 105 | 105
SHI-1 [1] | – | – | – | – | 107 | 91.6 | 94.9 | 99.5 | 98.3
THP-1 [9] | – | – | – | – | 106 | 101 | 101 | 102 | 104

Conditions | IC50 (cell viability) [µM]
BV-173 [24] | > 10
HEL [16] | > 10
HL-60 [28] | > 10
K-562 | > 10
KCL-22 [20] | > 10
KG-1 [18] | > 10
KU-812 [17] | > 10
LAMA-84 [21] | > 10
ML-2 [25] | > 10
MOLM-13 [27] | > 10
MV4-11 [22] | > 10
Mono-Mac-6 [26] | > 10
NOMO-1 [19] | > 10
SHI-1 [15] | > 10
THP-1 [23] | > 10

CC(C)c1nc(CN(C)C(=O)N[C@H](C(=O)N[C@@H](Cc2ccccc2)C[C@H](O)[C@H](Cc2ccccc2)NC(=O)OCc2cncs2)C(C)C)cs1 [Ritonavir]
Conditions | area under dose-response curve, co-treatment: AZD3965 100 nM | area under dose-response curve, co-treatment: DMSO vehicle | area under dose-response curve, co-treatment: pictilisib 100 nM | cell viability, 1 nM [%] | cell viability, 10 nM [%] | cell viability, 100 nM [%] | cell viability, 1000 nM [%] | cell viability, 10000 nM [%]
BV-173 [10] | – | – | – | 107 | 89.8 | 96 | 85.7 | 39.1
HEL [2] | – | – | – | 90.8 | 99.8 | 107 | 94.2 | 87.8
HL-60 [14] | – | – | – | 99 | 101 | 113 | 103 | 86.6
HL-60 [29] | < 0.0301 | < 0.0301 | < 0.0301 | – | – | – | – | –
KCL-22 [6] | – | – | – | 99.4 | 102 | 108 | 94.5 | 87.2
KG-1 [4] | – | – | – | 95.7 | 96.8 | 108 | 101 | 71.1
KU-812 [3] | – | – | – | 109 | 95.1 | 102 | 95.9 | 78.8
LAMA-84 [7] | – | – | – | 115 | 103 | 102 | 100 | 88.6
ML-2 [11] | – | – | – | 94.2 | 94.2 | 108 | 83.5 | 64.4
MOLM-13 [13] | – | – | – | 104 | 104 | 95.3 | 96.2 | 99.3
MV4-11 [8] | – | – | – | 120 | 98.1 | 95.9 | 87.2 | 71.9
Mono-Mac-6 [12] | – | – | – | 91.7 | 98.6 | 97.6 | 88.1 | 79
NOMO-1 [5] | – | – | – | 108 | 88.5 | 103 | 90.3 | 81.3
SHI-1 [1] | – | – | – | 100 | 101 | 109 | 104 | 83.1
THP-1 [9] | – | – | – | 97.1 | 91.7 | 107 | 97.3 | 88.2

Conditions | IC50 (cell viability) [µM]
BV-173 [24] | 6.62
HEL [16] | > 10
HL-60 [28] | > 10
K-562 | > 10
KCL-22 [20] | > 10
KG-1 [18] | > 10
KU-812 [17] | > 10
LAMA-84 [21] | > 10
ML-2 [25] | > 10
MOLM-13 [27] | > 10
MV4-11 [22] | > 10
Mono-Mac-6 [26] | > 10
NOMO-1 [19] | > 10
SHI-1 [15] | > 10
THP-1 [23] | > 10

O=C(O)C1=CC(=C(c2ccc(O)c(C(=O)O)c2)c2ccc(O)c(C(=O)O)c2)C=CC1=O [Aurintricarboxylic acid]
Conditions | area under dose-response curve, co-treatment: AZD3965 100 nM | area under dose-response curve, co-treatment: DMSO vehicle | area under dose-response curve, co-treatment: GSK2194069 100 nM | area under dose-response curve, co-treatment: pictilisib 100 nM | cell viability, 1 nM [%] | cell viability, 10 nM [%] | cell viability, 100 nM [%] | cell viability, 1000 nM [%] | cell viability, 10000 nM [%]
BV-173 [10] | – | – | – | – | 114 | 104 | 107 | 88.3 | 9.49
HEL [2] | – | – | – | – | 108 | 85.9 | 115 | 92.5 | 21.8
HL-60 [14] | – | – | – | – | 103 | 87.8 | 103 | 91.1 | 111
HL-60 [29] | < 0.0301 | < 0.0301 | < 0.0301 | < 0.0301 | – | – | – | – | –
KCL-22 [6] | – | – | – | – | 131 | 94.8 | 92 | 116 | 119
KG-1 [4] | – | – | – | – | 104 | 94.5 | 99.9 | 89.6 | 78.9
KU-812 [3] | – | – | – | – | 98 | 102 | 106 | 96 | 102
LAMA-84 [7] | – | – | – | – | 105 | 102 | 100 | 89 | 106
ML-2 [11] | – | – | – | – | 107 | 97.7 | 97.5 | 96.4 | 92.9
MOLM-13 [13] | – | – | – | – | 91.3 | 101 | 107 | 82.8 | 30.9
MV4-11 [8] | – | – | – | – | 103 | 100 | 86.3 | 97 | 71.9
Mono-Mac-6 [12] | – | – | – | – | 98.6 | 98.6 | 104 | 105 | 89.7
NOMO-1 [5] | – | – | – | – | 95.8 | 108 | 109 | 90.1 | 80.9
SHI-1 [1] | – | – | – | – | 104 | 91.8 | 99 | 100 | 114
THP-1 [9] | – | – | – | – | 105 | 101 | 109 | 97.5 | 99.4

Conditions | IC50 (cell viability) [µM]
BV-173 [24] | 2.72
HEL [16] | 3.3
HL-60 [28] | > 10
K-562 | > 10
KCL-22 [20] | > 10
KG-1 [18] | > 10
KU-812 [17] | > 10
LAMA-84 [21] | > 10
ML-2 [25] | > 10
MOLM-13 [27] | 2.64
MV4-11 [22] | > 10
Mono-Mac-6 [26] | > 10
NOMO-1 [19] | > 10
SHI-1 [15] | > 10
THP-1 [23] | > 10
